The values that follow come from US8263056B2, “Dyed-hair-binding peptides and peptide-based hair reagents for personal care” (E I du Pont de Nemours and Company, priority 2007, dated 2012).

The conditions of this test: read-out: EC50 (concentration at which half the maximum binding was observed by measuring A405 nm), binding to dyed hair, ELISA-type assay. The text has this:
Each selection round was monitored for enrichment of phage displaying dyed-hair-binding peptides using ELISA-like assays in the deep well plates performed using an anti-M13 phage antibody conjugated to horseradish-peroxidase, followed by the addition of a chromogenic agent ABTS (2,2′-azino-bis(3-ethylbenzthiazoline-6-sulphonic acid)). The plates were read at 405 nm.
Relative binding strengths of the phage can also be determined by testing serial dilutions of the phage for binding to dyed hair in an ELISA. For example, serial dilutions of the display-selected clones were exposed to dyed hair in an ELISA. […] Primers against the phage vector sequence (available from New England BIOLABS®) that flank the insertion site were used to determine the DNA sequence encoding the peptide for the phage in each group. […] The DNA sequences encoding dyed-hair-binding peptides isolated were determined. Peptides Dye-1 through Dye-16 were those sequenced after round 4 of selection. Peptides Dye 17 through Dye-28 were those isolated and sequenced after a fifth round of selection.
The ELISA-type assay described in Example 1 was used to evaluate the affinity of dyed-hair-binding peptides for dyed hair. All of the synthesize peptides in Table 2 were evaluated for their ability to bind to dyed hair versus two negative controls (a non-selected peptide and a blank (no peptide)).
The EC50 values (the concentration at which half the maximum binding was observed by measuring A405 nm) were deduced and given in Table 3.
(In general: In an ELISA, binding on a coated surface is turned into a signal by an enzyme label.)

On to “LLSDFHYGDMWDASR-GSSGK (biotin) [Aff15016]”, for which the EC50 was about 1000 nM.

On to NYNYNYNYQYSSR-GSSGK (biotin) [Aff15011], for which the EC50 is over 10000 nM. With QYYQDYQYYHSSR-GSSK (biotin) [Aff15029], the EC50 is about 1000 nM.

“SSNDSNVSWFHYYASGLTSSR-GSSG-SRKSSQKNPHHPKPPKKPTAR-GSSGK (biotin) [Aff15025]”: the EC50 is about 25 nM. Turning to “SSNDSNVSWFHYYASGLTSSR-GSSGK-(biotin) [Aff15013]”, the EC50 is about 1000 nM. Take YHYDYDHYYESSR-GSSGK (biotin) [Aff15030]: the EC50 was about 1000 nM. In the case of YYYDYYQQDYSSR-GSSGK (biotin) [Aff15027] it was about 1000 nM.
